In PubChem BioAssay (NCI):
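These data come from cells grown in 96-well plates and exposed to compound for 48 hours at five concentrations. Here, GI50 denotes the concentration required for 50% inhibition of growth. At the TGI there is no net growth.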

Key:
Test in all cases: DTP human tumour cell line panel, 48 h
[1] = system: CCRF-CEM leukemia
[2] = system: DU-145 prostate
[3] = system: HT29 colon
[4] = system: MCF7 breast
[5] = system: MOLT-4 leukemia
[6] = system: OVCAR-3 ovarian
[7] = system: SK-OV-3 ovarian
[8] = system: SNB-75 CNS
[9] = system: SW-620 colon
[10] = system: T-47D breast

Row | SMILES | TGI [1] [µM] | TGI [2] [µM] | TGI [3] [µM] | TGI [4] [µM] | TGI [5] [µM] | TGI [6] [µM] | TGI [7] [µM] | TGI [8] [µM] | TGI [9] [µM] | TGI [10] [µM] | GI50 [1] [nM] | GI50 [2] [nM] | GI50 [3] [nM] | GI50 [4] [nM] | GI50 [5] [nM] | GI50 [6] [nM] | GI50 [7] [nM] | GI50 [8] [nM] | GI50 [9] [nM] | GI50 [10] [nM]
1 | CC(=O)Nc1ccc(N2C(=O)CS(=O)(=O)C2c2cccc(Oc3ccccc3)c2)cc1 (centres undefined) | > 100 | > 100 | 37.7 | 35.9 | 62.9 | 38.2 | 83.1 | 55.2 | 80.5 | 58.3 |  |  |  |  |  |  |  |  |  | 
2 | COc1cc2c(cc1OC)C1=Cc3ccc(OC)c(OC)c3C(C#N)N1CC2 (centres undefined) | > 100 | > 100 | > 100 | > 100 | > 100 | > 100 | > 100 | 33.8 | > 100 | 40.4 |  |  |  |  |  |  |  |  |  | 
3 | NC(CCl)=NC1CN2CCC1CC2 (centres undefined) | > 100 | > 100 | > 100 | > 100 | > 100 | > 100 | > 100 | > 100 | > 100 | > 100 |  |  |  |  |  |  |  |  |  | 
4 | O=c1[nH]nc(Cc2ccccc2)n1/N=C/c1ccc([N+](=O)[O-])o1 | > 100 | 42.3 | 18.9 | > 100 | > 100 | 29.8 | > 100 | 15 | > 100 | 79.1 |  |  |  |  |  |  |  |  |  | 
5 | O=c1[nH]c2nccnc2c2c([N+](=O)[O-])cccc12 | > 100 | > 100 | > 100 | > 100 | > 100 | > 100 | > 100 | > 100 | > 100 | 73.4 |  |  |  |  |  |  |  |  |  | 
6 | COc1ccc(C2c3cc4c(cc3OC(NNC(N)=O)C2C)OCO4)cc1 (centres undefined) | > 29.4 | > 100 | 17.2 | > 100 | 74.5 | 14.3 | > 100 | > 33.3 | > 100 | > 100 |  |  |  |  |  |  |  |  |  | 
7 | O=C1CSC(c2cccc(Cl)c2)N1c1c(O)c(Cl)cc(Br)c1Cl (centres undefined) | 44.8 | > 100 | > 100 | 29 | 57.9 | 33.4 | > 100 | > 100 | 32.7 | 41.7 |  |  |  |  |  |  |  |  |  | 
8 | c1ccc2c(c1)CCN(C1=NCCO1)C2 | > 10 | > 10 | > 10 | > 10 | > 10 | > 10 | > 10 | > 10 | > 10 | > 10 |  |  |  |  |  |  |  |  |  | 
9 | CN(C)c1ccc(/C=N/n2c(-c3ccccc3)nc3ccccc3c2=O)cc1 | > 100 | > 100 | > 100 | > 100 | > 100 | > 100 | > 100 | > 100 | > 100 | > 100 |  |  |  |  |  |  |  |  |  | 
10 | O=c1[nH]nc(-c2ccc([N+](=O)[O-])cc2)n1/N=C/c1ccc([N+](=O)[O-])cc1 | > 100 | > 100 | > 100 | > 100 | > 100 | > 100 | > 100 | > 100 | > 100 | > 100 |  |  |  |  |  |  |  |  |  | 
11 | CN(C)Cc1cc(C(C)(C)C)cc(CNC2CCCCC2)c1O | 43.7 | > 100 | 54.6 | > 100 | 33.5 | > 100 | > 100 | > 100 | > 100 | > 100 |  |  |  |  |  |  |  |  |  | 
12 | O=c1c2ncn(C3CCCCO3)c2n(-c2ccccc2)c(=S)n1-c1ccccc1 (centres undefined) | > 100 | > 100 | > 100 | > 100 | > 100 | > 81.3 | 61 | 20.7 | > 100 | > 77.3 |  |  |  |  |  |  |  |  |  | 
13 | CC(=O)[C@H]1CC[C@H]2[C@@H]3CCC4=CC(=O)CC[C@]4(C)[C@H]3CC[C@]12C | 48 | 94.3 | 29.7 | 50.4 | 35.2 | 35 | 62.9 | 65.6 | > 100 | 57.8 |  |  |  |  |  |  |  |  |  | 
14 | COc1cc(C(=O)O[C@H](C(=O)NCCNC(=O)[C@@H](OC(=O)c2cc(OC)cc3c(C)cccc23)[C@]2(C)CO2)[C@]2(C)CO2)c2cccc(C)c2c1 |  | 1.46 | 29.1 | 0.0238 | > 100 | 7.63 | 9.74 | 1.4 | > 100 | 3.48 | < 10 | 257 | < 19.8 | < 10 | < 10 | 721 | 827 | 304 | < 10 | 417
15 | Nc1nc2cc(CNc3ccc(C(=O)O)cc3)ccc2nc1-c1ccccc1 | > 100 | > 100 | > 100 | > 100 | > 100 | > 100 | > 100 | > 100 | > 100 | > 100 |  |  |  |  |  |  |  |  |  | 
16 | CCOP(=O)(CC1CC(O)(CNc2cc(Cl)nc(N)n2)C1)OCC (centres undefined) | > 100 | > 100 | > 100 | > 100 | > 100 | > 100 | > 100 | > 100 | > 100 | > 100 |  |  |  |  |  |  |  |  |  | 

Row | SMILES | TGI [1] [µM] | TGI [2] [µM] | TGI [3] [µM] | TGI [4] [µM] | TGI [5] [µM] | TGI [6] [µM] | TGI [7] [µM] | TGI [8] [µM] | TGI [9] [µM] | TGI [10] [µM] | GI50 [1] [nM] | GI50 [2] [nM] | GI50 [3] [nM] | GI50 [4] [nM] | GI50 [5] [nM] | GI50 [6] [nM] | GI50 [7] [nM] | GI50 [8] [nM] | GI50 [9] [nM] | GI50 [10] [nM]
17 | COc1ccc(-c2cc(C3CC3)nc(SCC(=O)O)c2C#N)cc1 | > 100 | > 100 | > 100 | > 100 | > 100 | > 100 | > 100 | > 100 | > 100 | > 100 |  |  |  |  |  |  |  |  |  | 
18 | COC(=O)C1=COC(C)C2C[n+]3ccc4c([nH]c5ccccc54)c3CC12 (centres undefined) | > 100 | > 100 | > 100 | > 100 | > 100 | > 100 | > 100 | > 100 | > 100 | > 100 |  |  |  |  |  |  |  |  |  | 
19 | O=C(CCCC1Cc2ccccc2C1=O)c1ccccc1 (centres undefined) | > 100 | > 100 | > 100 | 56.3 | > 100 | > 100 | > 100 | > 100 | > 100 | > 100 |  |  |  |  |  |  |  |  |  | 
20 | O=C1OC(C2Cc3ccccc3C2=O)c2ccccc21 (centres undefined) | > 100 | > 100 | 60.5 | > 100 | > 100 | > 100 | > 100 | > 100 | > 100 | > 100 |  |  |  |  |  |  |  |  |  | 
21 | Cc1ccc(S(=O)(=O)Nc2nc3ccccc3c(=O)n2C2CCCCC2)cc1 | > 100 | > 100 | > 100 | > 100 | > 100 | > 100 | > 100 | > 100 | > 100 | > 100 |  |  |  |  |  |  |  |  |  | 
22 | c1ccc2c(c1)nc1n2CCNC1 | > 100 | > 100 | > 100 | > 100 | > 100 | > 100 | > 100 | > 100 | > 100 | > 100 |  |  |  |  |  |  |  |  |  | 
23 | C/C=C1/CN2[C@@H](C3=C[C@@H]4[C@@H]5N(C3=O)c3ccccc3[C@@]53CCN5C/C(=C/C)[C@@H]4C[C@H]53)C[C@@]34c5ccccc5N5C(=O)CC=C([C@H]1C[C@H]23)[C@H]54 | 2.94 | 22.1 | 8.08 | 10.7 | 6.28 | 15.8 | 16.8 | 17.4 | 10.4 | 49.2 |  |  |  |  |  |  |  |  |  | 
24 | CCN(CC)c1ccc2c(c1)Oc1ccc(N(C(C)=O)c3ccccc3)cc1C21OC(=O)c2ccccc21 (centres undefined) | > 100 | > 100 | > 100 | > 100 | > 100 | > 100 | > 100 | > 100 | > 100 | > 100 |  |  |  |  |  |  |  |  |  | 
25 | O=C1C=C(N2CCCC2)C(=O)c2c(O)ccc(O)c21 | 5.19 | > 10 | > 10 | > 10 | > 10 | > 10 | > 10 | > 10 | > 10 | > 10 |  |  |  |  |  |  |  |  |  | 
26 | NC(Cc1ccccc1)=NCC(=O)O | > 100 | > 100 | > 100 | > 100 | > 100 | > 100 | > 100 | > 100 | > 100 | > 100 |  |  |  |  |  |  |  |  |  | 
27 | Cc1ccc(C2(N3CCCC3)OC(C)(C)c3cccc4cccc2c34)cc1 (centres undefined) | > 100 | 32.8 | 26.2 | 32.5 | > 100 | 30.3 | 29.3 | 26.3 | 30.9 | 46.9 |  |  |  |  |  |  |  |  |  | 
28 | NNC(=O)Cc1cccnc1 | > 100 | > 100 | > 100 | > 100 | > 100 | > 100 | > 100 | > 100 | > 100 | > 100 |  |  |  |  |  |  |  |  |  | 
29 | CC(C)=CCC/C(=C\CC/C(=C\CCc1ccoc1)C(=O)O)C(=O)O | > 100 | > 100 | > 100 | > 100 | > 100 | > 100 | > 100 | > 100 | > 100 | > 100 |  |  |  |  |  |  |  |  |  | 
30 | COc1cc(CCNC2=CC(=O)c3cccnc3C2=O)ccc1O | 25.9 | 3.11 | 4.38 | 1.3 | 18.2 | 5.51 | 11.1 | 2.06 | 2.94 | 35.1 |  |  |  |  |  |  |  |  |  | 
31 | CC(=O)OC(CC(C)C)P1(=O)N(CC(C)(C)C)[C@@H]2CCCC[C@H]2N1CC(C)(C)C (some centres undefined) | > 93.3 | 29.4 | 19 | 17.4 | 25.3 | 23.1 | 30.7 | 20.6 | 29 | 19.7 |  |  |  |  |  |  |  |  |  | 
32 | O=C1c2cc([N+](=O)[O-])cnc2S(=O)(=O)N1c1ccc(Br)cc1 | > 100 | > 100 | > 100 | > 100 | > 100 | > 100 | > 100 | > 100 | > 100 | > 100 |  |  |  |  |  |  |  |  |  | 
